Values quoted from earlier work, collected in US20150030676A1, “STABLIZED MODIFIED RELEASE FOLIC ACID DERIVATIVE COMPOSITION, ITS THERAPEUTIC USE AND METHODS OF MANUFACTURE” (APTALIS PHARMATECH, INC., priority 2013, published 2015).

Settings: in vivo

Substance: 6(S)-5-methyltetrahydrofolate [L-methylfolate]
- plasma elimination half life: about 3 hours
